Experimental data as given in the supplement of paper PMC10307832.

Assays:
Assay in all cases: relative viability (nuclei count vs DMSO), 5 days (fraction); higher = more cells survive
201T = tested on: 201T
Outline: (§1)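 Lung cancer cell lines in 1536-well plates were dosed by pin tool the day after seeding, either with one drug alone or with a fixed anchor-drug dose plus five library-drug doses (not always all listed) in √10 steps. After 5 days, cells were fixed and their nuclei stained in one step (final 0.05% Triton X-100, 1% formaldehyde, 1 ug/ml Hoechst), then counted on 4× images. Relative viability is the nuclei count in treated wells divided by that in vehicle wells. Values are medians of duplicate plates.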

NCI-H23 = tested on: NCI-H23
Outline: as §1

NCI-H647 = tested on: NCI-H647
Outline: as §1

NCI-H1651 = tested on: NCI-H1651
Outline: as §1

LCLC-103H = tested on: LCLC-103H
Outline: as §1

LK-2 = tested on: LK-2
Outline: as §1

RERF-LC-KJ = tested on: RERF-LC-KJ
Outline: as §1

HARA = tested on: HARA
Outline: as §1

NCI-H2347 = tested on: NCI-H2347
Outline: as §1

PC-3 [JPC-3] = tested on: PC-3 [JPC-3]
Outline: as §1

NCI-H2405 = tested on: NCI-H2405
Outline: as §1

NCI-H838 = tested on: NCI-H838
Outline: as §1

LCLC-97TM1 = tested on: LCLC-97TM1
Outline: as §1

HCC-78 = tested on: HCC-78
Outline: as §1

A-427 = tested on: A-427
Outline: as §1

NCI-H1793 = tested on: NCI-H1793
Outline: as §1

NCI-H522 = tested on: NCI-H522
Outline: as §1

LXF-289 = tested on: LXF-289
Outline: as §1

LOU-NH91 = tested on: LOU-NH91
Outline: as §1

## CCNC(=O)c1noc(-c2cc(C(C)C)c(O)cc2O)c1-c1ccc(CN2CCOCC2)cc1 [Luminespib] + NC(=O)Nc1cc(-c2cccc(F)c2)sc1C(=O)N[C@H]1CCCNC1 [AZD7762] (partner 0.2 µM)
201T; first compound 0.002 µM
  relative viability: 0.621
201T; first compound 0.006325 µM
  relative viability: 0.555
201T; first compound 0.02 µM
  relative viability: 0.525
201T; first compound 0.06325 µM
  relative viability: 0.516
201T; first compound 0.2 µM
  relative viability: 0.318
NCI-H23; first compound 0.002 µM
  relative viability: 0.258
NCI-H23; first compound 0.006325 µM
  relative viability: 0.247
NCI-H23; first compound 0.02 µM
  relative viability: 0.259
NCI-H23; first compound 0.06325 µM
  relative viability: 0.133
NCI-H23; first compound 0.2 µM
  relative viability: 0.11
NCI-H647; first compound 0.002 µM
  relative viability: 0.506
NCI-H647; first compound 0.006325 µM
  relative viability: 0.538
NCI-H647; first compound 0.02 µM
  relative viability: 0.176
NCI-H647; first compound 0.06325 µM
  relative viability: 0.0596
NCI-H647; first compound 0.2 µM
  relative viability: 0.0506
NCI-H1651; first compound 0.002 µM
  relative viability: 0.445
NCI-H1651; first compound 0.006325 µM
  relative viability: 0.441
NCI-H1651; first compound 0.02 µM
  relative viability: 0.277
NCI-H1651; first compound 0.06325 µM
  relative viability: 0.446
NCI-H1651; first compound 0.2 µM
  relative viability: 0.181
LCLC-103H; first compound 0.002 µM
  relative viability: 0.934
LCLC-103H; first compound 0.006325 µM
  relative viability: 0.699
LCLC-103H; first compound 0.02 µM
  relative viability: 0.639
LCLC-103H; first compound 0.06325 µM
  relative viability: 0.739
LCLC-103H; first compound 0.2 µM
  relative viability: 0.726
LK-2; first compound 0.002 µM
  relative viability: 0.37
LK-2; first compound 0.006325 µM
  relative viability: 0.481
LK-2; first compound 0.02 µM
  relative viability: 0.278
LK-2; first compound 0.06325 µM
  relative viability: 0.0715
LK-2; first compound 0.2 µM
  relative viability: 0.0593
RERF-LC-KJ; first compound 0.002 µM
  relative viability: 0.936
RERF-LC-KJ; first compound 0.006325 µM
  relative viability: 0.998
RERF-LC-KJ; first compound 0.02 µM
  relative viability: 0.683
RERF-LC-KJ; first compound 0.06325 µM
  relative viability: 0.533
RERF-LC-KJ; first compound 0.2 µM
  relative viability: 0.178
HARA; first compound 0.002 µM
  relative viability: 0.304
HARA; first compound 0.006325 µM
  relative viability: 0.291
HARA; first compound 0.02 µM
  relative viability: 0.511
HARA; first compound 0.06325 µM
  relative viability: 0.18
HARA; first compound 0.2 µM
  relative viability: 0.125
NCI-H2347; first compound 0.002 µM
  relative viability: 0.844
NCI-H2347; first compound 0.006325 µM
  relative viability: 0.719
NCI-H2347; first compound 0.02 µM
  relative viability: 0.614
NCI-H2347; first compound 0.06325 µM
  relative viability: 0.469
NCI-H2347; first compound 0.2 µM
  relative viability: 0.202
PC-3 [JPC-3]; first compound 0.002 µM
  relative viability: 0.747
PC-3 [JPC-3]; first compound 0.006325 µM
  relative viability: 0.86
PC-3 [JPC-3]; first compound 0.02 µM
  relative viability: 0.492
PC-3 [JPC-3]; first compound 0.06325 µM
  relative viability: 0.319
PC-3 [JPC-3]; first compound 0.2 µM
  relative viability: 0.337
NCI-H2405; first compound 0.002 µM
  relative viability: 0.865
NCI-H2405; first compound 0.02 µM
  relative viability: 0.711
NCI-H2405; first compound 0.06325 µM
  relative viability: 0.167
NCI-H2405; first compound 0.2 µM
  relative viability: 0.127
NCI-H838; first compound 0.002 µM
  relative viability: 0.994
NCI-H838; first compound 0.006325 µM
  relative viability: 0.89
NCI-H838; first compound 0.02 µM
  relative viability: 0.775
NCI-H838; first compound 0.06325 µM
  relative viability: 0.625
NCI-H838; first compound 0.2 µM
  relative viability: 0.597
LCLC-97TM1; first compound 0.002 µM
  relative viability: 0.251
LCLC-97TM1; first compound 0.006325 µM
  relative viability: 0.22
LCLC-97TM1; first compound 0.02 µM
  relative viability: 0.111
LCLC-97TM1; first compound 0.06325 µM
  relative viability: 0.167
LCLC-97TM1; first compound 0.2 µM
  relative viability: 0.0727
HCC-78; first compound 0.002 µM
  relative viability: 0.562
HCC-78; first compound 0.006325 µM
  relative viability: 0.591
HCC-78; first compound 0.02 µM
  relative viability: 0.536
HCC-78; first compound 0.06325 µM
  relative viability: 0.497
HCC-78; first compound 0.2 µM
  relative viability: 0.333
A-427; first compound 0.002 µM
  relative viability: 0.865
A-427; first compound 0.006325 µM
  relative viability: 0.722
A-427; first compound 0.02 µM
  relative viability: 0.557
A-427; first compound 0.06325 µM
  relative viability: 0.258
A-427; first compound 0.2 µM
  relative viability: 0.205
NCI-H1793; first compound 0.002 µM
  relative viability: 0.406
NCI-H1793; first compound 0.006325 µM
  relative viability: 0.422
NCI-H1793; first compound 0.02 µM
  relative viability: 0.15
NCI-H1793; first compound 0.06325 µM
  relative viability: 0.0769
NCI-H1793; first compound 0.2 µM
  relative viability: 0.11
NCI-H522; first compound 0.002 µM
  relative viability: 0.866
NCI-H522; first compound 0.006325 µM
  relative viability: 0.93
NCI-H522; first compound 0.02 µM
  relative viability: 0.694
NCI-H522; first compound 0.06325 µM
  relative viability: 0.713
NCI-H522; first compound 0.2 µM
  relative viability: 0.353
LXF-289; first compound 0.002 µM
  relative viability: 1.07
LXF-289; first compound 0.006325 µM
  relative viability: 1.1
LXF-289; first compound 0.02 µM
  relative viability: 1.12
LXF-289; first compound 0.06325 µM
  relative viability: 0.151
LXF-289; first compound 0.2 µM
  relative viability: 0.0914
LOU-NH91; first compound 0.002 µM
  relative viability: 0.797
LOU-NH91; first compound 0.006325 µM
  relative viability: 0.799
LOU-NH91; first compound 0.02 µM
  relative viability: 0.66
LOU-NH91; first compound 0.06325 µM
  relative viability: 0.322
LOU-NH91; first compound 0.2 µM
  relative viability: 0.318
